# According to patent US8440617B2, “Hyperbaric treatment in wound healing” (The Trustees of the University of Pennsylvania, priority 2007, dated 2013):
# Experiments:
# SDF-1α in wound tissue = test: Wound SDF-1α level (immunostaining); assay type: in vivo, mouse; conditions: diabetic mice treated with insulin
# Source text: For immunostaining, paraffin embedded serial sections (5 μm) were first underwent standard deparaffinizing and rehydration procedures and then probed with various Abs. To assess wound SDF-1α^+ cells, sections were double-stained with HTC-conjugated anti-SDF-1α and PE-conjugated different tissue-specific Abs (eBiosciences). To detect blood vessels in wound, sections were stained with HTC-conjugated anti-VEGFR2Ab. For examination of wound EPC recruitment in BM transplantation experiment, sections were double-stained with FITC-GFP and PE-VEGFR2 (BD Biosciences). Nuclei were counterstained with Hoescht dye. Masson's trichrome staining and H&E staining were performed using standard method and all reagents were from Sigma-Aldrich. Tissue sections were analyzed using fluorescence microscopy and ImageJ (NIH) software to quantitate fluorescent intensity. In trichrome stained slides, blue stain (collagen content) was also quantitatively analyzed by ImageJ.
# BM eNOS phosphorylation = test: Western blot of bone marrow eNOS and phospho-eNOS; assay type: in vivo, mouse; conditions: diabetic mice treated with insulin
# Procedure: Isolation of whole BM from FVB/NJ mice (n=12/group) was obtained by flushing harvested femurs and tibias with PBS/2% FBS. Red blood cells were removed by Red Cell Lysis Buffer (Sigma-Aldrich). Isolated BM cells were then lysed and protein concentrations were determined by DC protein assay (Bio-Rad Laboratories). Equal amounts of protein were subjected to 4-12% SDS gel electrophoresis under reducing conditions. The transferred PVDF membranes were probed with primary Ab (anti-eNOS and anti-phospho-eNOS (Ser^1177) (BD Biosciences) diluted 1:500 in 1% milk in TBST buffer and then incubated with HRP-conjugated second Ab (DakoCytomation Inc.). Proteins were visualized using enhanced chemiluminescence (Amersham Bioscience).
# In diabetic patients, circulating EPCs are decreased in both number and function, and so it was hypothesized that BM eNOS activation is impaired in diabetes. To examine this question, BM was isolated from streptozocin-induced (STZ-induced) diabetic and nondiabetic mice and analyzed via Western blot for levels of total and phosphorylated eNOS protein. Although no changes in the amount of total eNOS protein were observed, the levels of biologically active phosphorylated eNOS protein were decreased in diabetic mice as compared with nondiabetic controls (FIG. 12A). […]
substance,measurement,setting,value
"insulin: human insulin (NPH), 6 U/kg twice/d i.p.",impaired wound SDF-1α production,SDF-1α in wound tissue,failed to improve
same,reversal of impaired BM eNOS phosphorylation,BM eNOS phosphorylation,little effect
same,reversal of impaired BM eNOS phosphorylation,BM eNOS phosphorylation; listed as Insulin,failed to restore
